As a reminder, the IC50 is the concentration at which inhibition is half-maximal. High values mean lower potency, low ones higher potency.

Some targets named below: TESK2 (human) (UniProt Q96S53); PRKDC (human) (UniProt P78527); ATM (human) (UniProt Q13315); ARAF (human) (UniProt P10398); CDK10 (human) (UniProt Q15131); SGK223 (human) (UniProt Q86YV5); LRRK2 (human) (UniProt Q5S007); PIK3C2B (human) (UniProt O00750); CDKL2 (human) (UniProt Q92772).

Chain of ATM (human) (Q13315 whole entry, looked up): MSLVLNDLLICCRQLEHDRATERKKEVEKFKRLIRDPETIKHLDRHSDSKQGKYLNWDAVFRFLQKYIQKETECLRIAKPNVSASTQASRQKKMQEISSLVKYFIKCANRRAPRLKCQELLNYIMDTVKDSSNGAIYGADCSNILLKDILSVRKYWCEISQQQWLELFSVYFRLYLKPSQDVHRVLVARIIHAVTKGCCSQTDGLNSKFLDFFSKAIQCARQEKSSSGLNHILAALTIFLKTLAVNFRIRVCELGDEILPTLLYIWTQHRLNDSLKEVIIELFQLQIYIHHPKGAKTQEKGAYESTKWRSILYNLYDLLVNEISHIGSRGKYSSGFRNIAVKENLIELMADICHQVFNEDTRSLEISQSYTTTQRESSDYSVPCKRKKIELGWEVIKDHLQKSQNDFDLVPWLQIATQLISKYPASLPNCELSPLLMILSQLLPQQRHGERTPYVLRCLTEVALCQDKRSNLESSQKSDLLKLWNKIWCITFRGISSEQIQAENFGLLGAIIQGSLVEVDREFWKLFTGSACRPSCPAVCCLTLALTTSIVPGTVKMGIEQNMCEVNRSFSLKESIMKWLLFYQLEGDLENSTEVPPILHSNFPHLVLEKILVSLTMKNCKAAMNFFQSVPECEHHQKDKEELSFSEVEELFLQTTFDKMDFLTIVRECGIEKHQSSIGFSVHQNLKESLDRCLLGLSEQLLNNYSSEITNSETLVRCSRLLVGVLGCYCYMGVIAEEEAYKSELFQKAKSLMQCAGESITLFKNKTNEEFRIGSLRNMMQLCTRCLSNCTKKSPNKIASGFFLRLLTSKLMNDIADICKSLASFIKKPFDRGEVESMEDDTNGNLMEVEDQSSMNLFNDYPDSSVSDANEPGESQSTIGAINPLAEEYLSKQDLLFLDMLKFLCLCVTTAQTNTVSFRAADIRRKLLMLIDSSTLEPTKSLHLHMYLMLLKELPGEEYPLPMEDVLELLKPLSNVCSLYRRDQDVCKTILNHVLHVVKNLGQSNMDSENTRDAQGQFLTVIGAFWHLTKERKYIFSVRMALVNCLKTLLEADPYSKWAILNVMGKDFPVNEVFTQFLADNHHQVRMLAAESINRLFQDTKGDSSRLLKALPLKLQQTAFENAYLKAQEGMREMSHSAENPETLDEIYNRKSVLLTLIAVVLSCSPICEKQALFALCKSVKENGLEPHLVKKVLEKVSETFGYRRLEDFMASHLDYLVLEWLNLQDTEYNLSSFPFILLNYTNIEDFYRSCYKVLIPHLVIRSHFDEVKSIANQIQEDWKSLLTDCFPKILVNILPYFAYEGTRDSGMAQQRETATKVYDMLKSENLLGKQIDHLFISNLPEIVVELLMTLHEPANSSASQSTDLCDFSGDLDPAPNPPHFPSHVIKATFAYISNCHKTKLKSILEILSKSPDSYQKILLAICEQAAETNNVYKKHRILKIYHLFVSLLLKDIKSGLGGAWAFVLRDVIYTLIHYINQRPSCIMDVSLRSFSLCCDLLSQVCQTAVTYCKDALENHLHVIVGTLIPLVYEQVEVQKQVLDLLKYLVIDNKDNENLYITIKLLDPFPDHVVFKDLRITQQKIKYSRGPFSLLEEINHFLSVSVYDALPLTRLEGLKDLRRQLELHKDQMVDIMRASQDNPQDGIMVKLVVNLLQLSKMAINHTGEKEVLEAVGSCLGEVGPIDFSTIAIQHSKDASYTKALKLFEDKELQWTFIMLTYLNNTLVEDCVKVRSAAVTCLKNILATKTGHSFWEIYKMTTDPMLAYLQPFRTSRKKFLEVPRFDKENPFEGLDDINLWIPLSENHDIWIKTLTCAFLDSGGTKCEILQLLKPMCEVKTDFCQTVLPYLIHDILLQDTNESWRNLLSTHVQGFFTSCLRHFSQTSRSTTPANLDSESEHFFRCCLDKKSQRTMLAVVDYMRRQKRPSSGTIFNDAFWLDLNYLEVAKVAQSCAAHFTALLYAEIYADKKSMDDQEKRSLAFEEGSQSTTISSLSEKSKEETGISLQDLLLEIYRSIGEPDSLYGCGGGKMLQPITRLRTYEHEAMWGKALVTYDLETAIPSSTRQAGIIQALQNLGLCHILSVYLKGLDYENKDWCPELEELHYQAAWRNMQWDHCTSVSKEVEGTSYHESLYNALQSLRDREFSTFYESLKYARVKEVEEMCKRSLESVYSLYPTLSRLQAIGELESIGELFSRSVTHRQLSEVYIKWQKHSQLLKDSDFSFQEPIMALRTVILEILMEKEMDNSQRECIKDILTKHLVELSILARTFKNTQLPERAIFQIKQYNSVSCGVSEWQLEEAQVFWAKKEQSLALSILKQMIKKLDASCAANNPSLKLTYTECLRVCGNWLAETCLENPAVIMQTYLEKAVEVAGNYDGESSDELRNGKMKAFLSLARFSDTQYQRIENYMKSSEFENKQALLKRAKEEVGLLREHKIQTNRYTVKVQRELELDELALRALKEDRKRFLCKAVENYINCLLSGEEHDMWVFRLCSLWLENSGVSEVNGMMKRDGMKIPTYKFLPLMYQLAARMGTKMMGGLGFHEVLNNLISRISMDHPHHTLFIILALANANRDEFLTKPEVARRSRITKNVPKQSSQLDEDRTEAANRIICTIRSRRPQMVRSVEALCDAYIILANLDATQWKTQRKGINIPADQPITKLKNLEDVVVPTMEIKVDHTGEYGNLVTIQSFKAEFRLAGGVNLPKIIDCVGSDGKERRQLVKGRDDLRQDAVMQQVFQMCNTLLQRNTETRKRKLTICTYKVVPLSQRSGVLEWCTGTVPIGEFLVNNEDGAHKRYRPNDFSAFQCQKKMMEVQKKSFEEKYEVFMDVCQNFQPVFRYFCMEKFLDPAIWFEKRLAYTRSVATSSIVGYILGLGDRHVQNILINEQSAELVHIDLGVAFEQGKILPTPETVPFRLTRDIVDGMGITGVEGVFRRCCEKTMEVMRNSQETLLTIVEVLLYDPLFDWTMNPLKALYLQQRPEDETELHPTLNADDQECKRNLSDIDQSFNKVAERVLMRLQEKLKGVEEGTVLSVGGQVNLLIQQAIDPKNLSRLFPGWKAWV
Chain of SGK223 (human) (Q86YV5 whole entry, looked up): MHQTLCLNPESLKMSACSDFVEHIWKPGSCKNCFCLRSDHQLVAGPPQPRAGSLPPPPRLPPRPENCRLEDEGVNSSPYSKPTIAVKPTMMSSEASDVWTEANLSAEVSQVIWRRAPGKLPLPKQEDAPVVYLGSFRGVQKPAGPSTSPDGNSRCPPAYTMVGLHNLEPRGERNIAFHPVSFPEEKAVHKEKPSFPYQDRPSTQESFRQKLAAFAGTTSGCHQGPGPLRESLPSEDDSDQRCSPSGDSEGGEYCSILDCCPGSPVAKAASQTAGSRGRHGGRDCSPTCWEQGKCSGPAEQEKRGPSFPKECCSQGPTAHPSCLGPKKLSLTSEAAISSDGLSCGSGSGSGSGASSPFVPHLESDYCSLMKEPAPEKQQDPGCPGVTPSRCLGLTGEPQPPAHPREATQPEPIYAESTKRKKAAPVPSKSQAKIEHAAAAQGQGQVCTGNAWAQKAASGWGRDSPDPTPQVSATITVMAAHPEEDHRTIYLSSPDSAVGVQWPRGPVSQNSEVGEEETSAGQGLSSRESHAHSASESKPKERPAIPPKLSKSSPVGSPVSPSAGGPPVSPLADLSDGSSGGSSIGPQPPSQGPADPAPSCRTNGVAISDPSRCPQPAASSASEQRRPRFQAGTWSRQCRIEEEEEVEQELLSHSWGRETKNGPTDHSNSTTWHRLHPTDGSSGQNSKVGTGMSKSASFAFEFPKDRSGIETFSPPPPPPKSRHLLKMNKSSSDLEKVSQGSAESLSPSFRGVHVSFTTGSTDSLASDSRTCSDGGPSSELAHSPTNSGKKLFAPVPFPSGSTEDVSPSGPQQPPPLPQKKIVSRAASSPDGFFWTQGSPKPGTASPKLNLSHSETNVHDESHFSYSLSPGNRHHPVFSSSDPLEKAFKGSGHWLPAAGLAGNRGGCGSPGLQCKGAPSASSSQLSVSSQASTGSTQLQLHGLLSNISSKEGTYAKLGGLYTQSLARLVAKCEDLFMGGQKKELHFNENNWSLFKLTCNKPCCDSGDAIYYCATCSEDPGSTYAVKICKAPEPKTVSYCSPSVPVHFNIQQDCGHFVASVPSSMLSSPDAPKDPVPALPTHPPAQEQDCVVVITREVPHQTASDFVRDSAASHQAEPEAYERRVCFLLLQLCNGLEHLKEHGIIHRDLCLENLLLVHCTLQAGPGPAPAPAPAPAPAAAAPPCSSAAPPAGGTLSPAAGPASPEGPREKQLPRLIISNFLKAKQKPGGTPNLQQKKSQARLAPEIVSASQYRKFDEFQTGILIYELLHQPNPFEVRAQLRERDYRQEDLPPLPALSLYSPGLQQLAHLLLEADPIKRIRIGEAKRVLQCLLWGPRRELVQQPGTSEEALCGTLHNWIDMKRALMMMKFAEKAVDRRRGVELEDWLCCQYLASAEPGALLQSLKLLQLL
Chain of CDK10 (human) (Q15131 whole entry, looked up): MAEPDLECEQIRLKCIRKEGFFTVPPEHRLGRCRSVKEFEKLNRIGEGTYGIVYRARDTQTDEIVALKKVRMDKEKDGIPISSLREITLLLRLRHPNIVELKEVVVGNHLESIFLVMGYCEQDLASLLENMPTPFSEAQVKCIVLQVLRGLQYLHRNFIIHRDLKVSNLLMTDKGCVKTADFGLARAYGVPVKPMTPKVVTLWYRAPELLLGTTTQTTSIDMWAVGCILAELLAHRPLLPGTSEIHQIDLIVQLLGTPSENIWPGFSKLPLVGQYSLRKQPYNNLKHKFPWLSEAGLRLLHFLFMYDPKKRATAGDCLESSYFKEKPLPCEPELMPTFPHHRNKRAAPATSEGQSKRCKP

As for `CC(C)(C)c1cnc(CSc2cnc(NC(=O)C3CCNCC3)s2)o1`, the IC50 at TESK2 (human), against PRKDC (human) and on ATM (human) was over 10 µM throughout.
In the case of `CN[C@@H]1C[C@H]2O[C@@](C)([C@@H]1OC)n1c3ccccc3c3c4c(c5c6ccccc6n2c5c31)C(=O)NC4`, the IC50 was over 10 µM against ARAF (human); 0.87 µM on CDK10 (human); over 10 µM on PRKDC (human); 5.05 µM against SGK223 (human); over 10 µM against ATM (human).
As to `CC[C@@H](CO)Nc1nc(NCc2ccccc2)c2ncn(C(C)C)c2n1`, the IC50 on LRRK2 (human), against PIK3C2B (human), at CDKL2 (human), at PRKDC (human), against SGK223 (human) and on ATM (human) was over 10 µM each time.

(Values after the kinase profiling compilation of Christmann-Franck et al. (2016).)
